We go through 25 molecules from US6855843B2, “Inhibitors of α4 mediated cell adhesion” (Tanabe Seiyaku Co., Ltd., priority 1998, dated 2005).

The target of series [1] is T1, α4β7 (adhesion of RPMI cells to CS-1) (Homo sapiens, UniProt P13612+P26010).
T1 construct: endogenous in cells
T1 sequence (P13612 34-1032): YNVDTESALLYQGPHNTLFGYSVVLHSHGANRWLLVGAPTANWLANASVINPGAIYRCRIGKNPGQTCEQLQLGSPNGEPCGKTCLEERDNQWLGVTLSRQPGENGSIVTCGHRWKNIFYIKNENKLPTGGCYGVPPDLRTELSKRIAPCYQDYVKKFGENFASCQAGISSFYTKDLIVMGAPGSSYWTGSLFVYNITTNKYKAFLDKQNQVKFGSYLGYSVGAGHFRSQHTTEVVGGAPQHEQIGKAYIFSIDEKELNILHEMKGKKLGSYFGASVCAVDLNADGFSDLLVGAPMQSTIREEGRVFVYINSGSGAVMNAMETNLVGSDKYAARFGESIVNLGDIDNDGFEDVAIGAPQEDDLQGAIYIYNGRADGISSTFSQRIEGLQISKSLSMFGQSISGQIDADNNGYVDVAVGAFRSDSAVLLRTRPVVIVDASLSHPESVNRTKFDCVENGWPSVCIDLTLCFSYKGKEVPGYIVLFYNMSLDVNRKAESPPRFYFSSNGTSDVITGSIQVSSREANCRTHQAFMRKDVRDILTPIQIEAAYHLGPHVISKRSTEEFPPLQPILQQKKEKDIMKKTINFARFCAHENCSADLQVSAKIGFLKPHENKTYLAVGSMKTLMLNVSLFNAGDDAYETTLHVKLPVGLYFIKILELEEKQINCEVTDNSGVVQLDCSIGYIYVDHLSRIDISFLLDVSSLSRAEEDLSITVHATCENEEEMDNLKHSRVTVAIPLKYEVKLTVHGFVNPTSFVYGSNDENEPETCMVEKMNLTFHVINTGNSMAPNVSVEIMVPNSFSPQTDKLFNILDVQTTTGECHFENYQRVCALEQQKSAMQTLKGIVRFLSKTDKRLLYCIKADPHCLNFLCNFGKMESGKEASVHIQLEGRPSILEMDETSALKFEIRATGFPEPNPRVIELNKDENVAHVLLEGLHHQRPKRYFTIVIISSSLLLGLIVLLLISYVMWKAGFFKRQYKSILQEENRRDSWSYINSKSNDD
T1 sequence (P26010 20-798): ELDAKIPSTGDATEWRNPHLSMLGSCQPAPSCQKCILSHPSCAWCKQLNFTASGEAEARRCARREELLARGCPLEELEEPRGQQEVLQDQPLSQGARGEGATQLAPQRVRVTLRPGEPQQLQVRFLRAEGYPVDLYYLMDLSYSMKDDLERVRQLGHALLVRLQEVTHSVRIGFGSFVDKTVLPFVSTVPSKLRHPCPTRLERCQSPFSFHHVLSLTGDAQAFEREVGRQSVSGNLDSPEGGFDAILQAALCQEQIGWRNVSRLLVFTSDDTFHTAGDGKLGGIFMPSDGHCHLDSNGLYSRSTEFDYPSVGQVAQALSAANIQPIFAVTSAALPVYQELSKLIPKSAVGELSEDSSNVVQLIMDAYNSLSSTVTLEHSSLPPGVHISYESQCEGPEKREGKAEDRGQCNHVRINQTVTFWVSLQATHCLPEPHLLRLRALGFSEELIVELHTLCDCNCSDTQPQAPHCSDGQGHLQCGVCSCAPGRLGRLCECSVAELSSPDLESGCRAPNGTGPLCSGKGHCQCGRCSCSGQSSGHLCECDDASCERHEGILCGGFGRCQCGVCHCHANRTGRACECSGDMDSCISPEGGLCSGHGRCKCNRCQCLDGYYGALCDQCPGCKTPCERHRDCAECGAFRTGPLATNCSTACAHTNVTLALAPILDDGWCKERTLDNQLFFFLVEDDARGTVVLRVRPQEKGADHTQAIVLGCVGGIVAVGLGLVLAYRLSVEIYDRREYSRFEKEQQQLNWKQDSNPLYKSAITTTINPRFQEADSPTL
Put plainly: RPMI-CS-1 cell adhesion assay. The series is classed as cell-based. The following applies: adhesion of RPMI B-cell line (expresses α4β7) to CS-1 peptide coated microwells; read-out: RPMI-CS-1 IC50 value range.

For the molecule `COc1cccc(OC)c1-c1ccc(C[C@H](NC(=O)c2c(Cl)cc(-c3cscn3)cc2Cl)C(=O)O)cc1` [Example 307, N-[4-(1,3-Thiazol-4-yl)-2,6-dichlorobenzoyl]-4-(2,6-dimethoxyphenyl)-L-phenylalanine], the melting point is 186.5 °C. The half-maximal inhibitory concentration (IC50) in series [1] is under 300 nM.
In turn, `COc1ccc(C(N)=O)c(OC)c1-c1ccc(C[C@H](NC(=O)c2c(Cl)cccc2Cl)C(=O)O)cc1` [Example 326, N-(2,6-Dichlorobenzoyl)-4-(2,6-dimethoxy-3-carbamoylphenyl)-L-phenylalanine] displayed a melting point of 227 to 228 °C. Further, the IC50 in series [1] was under 300 nM.
For `COc1ccc(NC(C)=O)c(OC)c1-c1ccc(C[C@H](NC(=O)c2c(Cl)cccc2Cl)C(=O)O)cc1` [Example 325, N-(2,6-Dichlorobenzoyl)-4-[2,6-dimethoxy-3-(acetylamino)phenyl]-L-phenylalanine], the melting point is 244 to 245 °C. Besides, the IC50 in series [1] was under 300 nM.
As for `COc1ccc(O)c(OC)c1-c1ccc(C[C@H](NC(=O)c2c(Cl)cccc2Cl)C(=O)O)cc1` [Example 175, N-(2,6-Dichlorobenzoyl)-4-(2,6-dimethoxy-3-hydroxyphenyl)-L-phenylalanine], the melting point was in the range of 164 to 165 °C. Besides, the IC50 in series [1] is under 300 nM.
In the case of `COc1ccc(C(N)=O)c(OC)c1-c1ccc(C[C@H](NC(=O)c2c(Cl)cc(NC(N)=O)cc2Cl)C(=O)O)cc1` [Example 205, N-(4-Ureido-2,6-dichlorobenzoyl)-4-(3-carbamoyl-2,6-dimethoxyphenyl)-L-phenylalanine], the melting point fell in the range of 217 to 219 °C. The IC50 in series [1] was under 300 nM.
Molecule `CCOC(=O)Nc1cc(C[C@H](NC(=O)c2c(Cl)cccc2Cl)C(=O)O)ccc1-c1c(OC)cccc1OC` [Example 299] had a melting point of 216 to 217 °C. Besides, in series [1], the IC50 is under 300 nM.
The corresponding values for `COc1ccccc1-c1ccc(C[C@H](NC(=O)c2c(Cl)cccc2Cl)C(=O)O)cc1C(C)=O` [Example 71, 3-Acetyl-N-(2,6-dichlorobenzoyl)-4-(2-methoxyphenyl)-L-phenylalanine] are 87 to 89 °C and under 300 nM.
Molecule `COc1cccc(OCCF)c1-c1ccc(C[C@H](NC(=O)c2c(Cl)cccc2Cl)C(=O)O)cc1` [Example 228, N-(2,6-Dichlorobenzoyl)-4-[6-methoxy-2-(2-fluoroethoxy)phenyl]-L-phenylalanine] registered a melting point of 206 to 207 °C. In addition, the half-inhibitory concentration (IC50) in series [1] is under 300 nM.
`COc1cccc(OC)c1-c1ccc(C[C@H](NC(=S)c2c(Cl)cccc2Cl)C(=O)O)cc1` [Example 266, N-(2,6-Dichlorothiobenzoyl)-4-(2,6-dimethoxyphenyl)-L-phenylalanine] had a melting point of 180.4 °C. Moreover, the IC50 in series [1] was under 300 nM.
`COc1cccc(OC)c1-c1ccc(C[C@H](NC(=O)c2c(Cl)cc(-c3cnccn3)cc2Cl)C(=O)O)cc1` [Example 308, N-[4-(2-Pyrazinyl)-2,6-dichlorobenzoyl]-4-(2,6-dimethoxyphenyl)-L-phenylalanine] returned a melting point of 145.7 °C. Moreover, in series [1], the IC50 is under 300 nM.
`COc1cccc(OC)c1-c1ccc(C[C@H](NC(=O)c2c(Cl)cc(Br)cc2Cl)C(=O)O)cc1` [Example 207]: the melting point is 184 to 185 °C. The IC50 in series [1] is under 300 nM.
As for `CNCc1cc(OC)c(-c2ccc(C[C@H](NC(=O)c3c(Cl)cccc3Cl)C(=O)O)cc2)c(OC)c1` [Example 242, N-(2,6-Dichlorobenzoyl)-4-[2,6-dimethoxy-4-[(methylamino)methyl]phenyl]-L-phenylalanine], the melting point was 274 °C. Moreover, the IC50 in series [1] is under 300 nM.
On to `CC(=O)c1ccc(-c2ccc(C[C@H](NC(=O)c3c(Cl)cccc3Cl)C(=O)O)cc2)s1` [Example 215, N-(2,6-Dichlorobenzoyl)-4-(5-acetyl-2-thienyl)-L-phenylalanine], for which the melting point lay in the range of 194 to 195 °C. Further, the IC50 in series [1] was 300 to 1000 nM.
As to `COCCOc1ccc2c(c1-c1ccc(C[C@H](NC(=O)c3c(Cl)cccc3Cl)C(=O)O)cc1)OCO2` [Example 233, N-(2,6-Dichlorobenzoyl)-4-[2,3-methylenedioxy-6-(2-methoxyethoxy)phenyl]-L-phenylalanine], the melting point was in the range of 167 to 168 °C. Further, the IC50 in series [1] lay within 300 to 1000 nM.
`COc1ccc2c(c1-c1ccc(C[C@H](NC(=O)c3c(Cl)cccc3Cl)C(=O)O)cc1)OCCO2` [Example 241, N-(2,6-Dichlorobenzoyl)-4-(2,3-ethylenedioxy-6-methoxyphenyl)-L-phenylalanine]: the melting point stood at 218 °C. Besides, the IC50 in series [1] was under 300 nM.
Molecule `COc1ccc(CN2CCOCC2)c(OC)c1-c1ccc(C[C@H](NC(=O)c2c(Cl)cccc2Cl)C(=O)O)cc1` [Example 319, N-(2,6-Dichlorobenzoyl)-4-[2,6-dimethoxy-3-(morpholinomethyl)phenyl]-L-phenylalanine] had a melting point of 241 to 242 °C. The IC50 in series [1] was under 300 nM.
With `COc1cccc(OC)c1-c1ccc(C[C@H](NC(=O)c2c(Cl)cc(-c3nccs3)cc2Cl)C(=O)O)cc1` [Example 306, N-[4-(1,3-thiazol-2-yl)-2,6-dichlorobenzoyl]-4-(2,6-dimethoxyphenyl)-L-phenylalanine], the melting point amounted to 141.9 °C. In addition, in series [1], the IC50 is under 300 nM.
With `COc1cc(CCN2CCN(C)CC2)cc(OC)c1-c1ccc(C[C@H](NC(=O)c2c(Cl)cccc2Cl)C(=O)O)cc1` [Example 264, N-(2,6-Dichlorobenzoyl)-4-[2,6-dimethoxy-4-[2-(4-methyl-1-piperazinyl)ethyl]phenyl]-L-phenylalanine], the melting point came out at 178.9 °C. In addition, the IC50 in series [1] was under 300 nM.
On to `CCc1cc(C[C@H](NC(=O)c2c(Cl)cccc2Cl)C(=O)O)ccc1-c1ccccc1OC` [Example 296, N-(2,6-Dichlorobenzoyl)-3-ethyl-4-(2-methoxyphenyl)-L-phenylalanine], for which the melting point lay within 105 to 107 °C. In addition, the IC50 in series [1] is under 300 nM.
`COc1cccc(OC)c1-c1ccc(C[C@H](NC(=O)c2c(Cl)cc(NC(=O)Nc3ccccc3C)cc2Cl)C(=O)O)cc1` [Example 202] registered a melting point of 182 to 184 °C. Further, the 50% inhibitory concentration (IC50) in series [1] was under 300 nM.
`CNC(=O)Nc1cc(Cl)c(C(=O)N[C@@H](Cc2ccc(-c3c(OC)cccc3OC)cc2)C(=O)O)c(Cl)c1` [Example 203] came in with a melting point of 110 to 112 °C. Also, the IC50 in series [1] was under 300 nM.
As to `O=C(N[C@@H](Cc1ccc(-c2c(OCCO)cccc2OCCO)cc1)C(=O)O)c1c(Cl)cccc1Cl` [Example 229], the melting point was 124 to 125 °C. In addition, the IC50 in series [1] is under 300 nM.
In turn, `COc1cccc(OC)c1-c1ccc(C[C@H](NC(=O)c2c(Cl)cc(NC(C)=O)cc2Cl)C(=O)O)cc1` [Example 199] registered a melting point of 227 to 229 °C. Moreover, in series [1], the IC50 was under 300 nM.
For `CCCc1cc(OC)c(-c2ccc(C[C@H](NC(=O)c3c(Cl)cccc3Cl)C(=O)O)cc2)c(OC)c1` [Example 149], the melting point is 238 to 239 °C (dec.). Besides, the IC50 in series [1] was under 300 nM.
`COc1cc(NC(C)=O)cc(OC)c1-c1ccc(C[C@H](NC(=O)c2c(Cl)cccc2Cl)C(=O)O)cc1` [Example 159, N-(2,6-Dichlorobenzoyl)-4-(4-acetylamino-2,6-dimethoxyphenyl)-L-phenylalanine]: the melting point lay in the range of 243 to 244 °C. Also, the IC50 in series [1] is under 300 nM.
